Consider two compounds from patent US12319674B2, “Isatin derivatives” (KING SAUD UNIVERSITY, priority 2020, dated 2025).

Holding throughout (experiment): NCI-60 Human Tumor Cell Lines Screen, one-dose screen
What all share (format): cell-based

In test [1] the test system is Renal Cancer cells (CAKI-1). The note with it: CAKI-1 cells, 10^-5 M, 2 days. The method, then: (§1) Anticancer activities of the exemplary isatin derivatives were tested by the NIH National Cancer Institutes (NCI), with results summarized in FIGS. 2A-3B. The anticancer activity was tested by NCI, division of cancer treatment and diagnosis, according to the NCI-60 Human Tumor Cell Lines Screen, one-dose screen (https://dtp.cancer.gov/discovery_development/nci-60/methodology.htm). This screening allows for qualified synthesized chemicals to be subjected to an anticancer test against 60 different cancer cell lines. Briefly, exemplary T1 or T2 was dissolved in DMSO:Glycerol, 9:1, at 4 mmol and kept frozen prior to use. For inoculation, a 96 well microtiter was used for the study of different cell lines. Based on the doubling time for each cell line, the well density varied. The plates were incubated at 37° ° C., 5% CO2, 95% air and 100% relative humidity for 1 day. The exemplary T1 or T2 or a control were added to the plates at a concentration of 10^−5 M. After 2 more days, the plates were fixed and stained to identify growth inhibition relative to cells without drug treatment. Anti-proliferative activity was determined based on careful analysis of historical DTP screening data. Cell death and net growth inhibition were determined based on a time zero control. A value of 100 indicates no growth inhibition. A value of 40 indicates 60% growth inhibition. A value of 0 indicates no net growth over the course of the experiment. A value of −40 indicates 40% lethality.

The subject of test [2] is Melanoma cells (MDA-MB-435). The note with it: MDA-MB-435 cells, 10^-5 M, 2 days. The method, then:
as §1

Test [3] relates to Non-Small Cell Lung Cancer cells (EKVX). The note with it: 10^-5 M, 2 days. On the procedure:
as §1

Test [4] has as its system Breast Cancer cells (MDA-MB-468). The note with it: MDA-MB-468 cells, 10^-5 M, 2 days. The method, then: as §1

Turning to `O=C1Nc2ccccc2/C1=N\N=Cc1cccs1` [T1, 3-((E)-(thiophen-2-ylmethylene)hydrazono)indolin-2-one], the results for the “anticancer activity compared to control (reduction)” value in test [1], in test [2] and in test [3] were about 48%, about 83% and about 54%, respectively.
As for `O=C1Nc2ccc(Cl)cc2/C1=N/N=C/c1ccsc1` [T2, 5-chloro-3-((E)-(thiophen-3-ylmethylene) hydrazono) indolin-2-one], the “anticancer activity compared to control (reduction)” value in test [4] is about 73%.
